Test results from patent publication US10098913B2, “Composition of stem cells having highly expressed FAS ligand” (UNIVERSITY OF SOUTHERN CALIFORNIA, priority 2013, dated 2018).
Entries after “also recorded” stand apart in the source; their conditions may differ.

Experiments:
[1] = tested on: 5TGM1 MM cells; experiment: 5TGM1 multiple myeloma model mice: survival and cancroid pearls; type: in vivo
Experimental: A 5TGM1 MM model was conducted in weight-matched, 8-week-old to 10-week-old female bg-nu/nu-xid mice from the Jackson Lab (Bar Harbor, Me., USA). The use of animals for research was approved through the Institutional Ethics Committee/Institutional Review Board of the University of Southern California (protocol #10941). The mice were housed in isolator cages, and autoclaved chow and acidified water were provided ad libitum. Disseminated MM was induced through the intravenous inoculation of about 6×10^6 5TGM1 cells in about 200 μl PBS in bg-nu/nu-xid mice through the tail vein (about 6×10^6/10 g body weight). After tumor cell inoculation, multiple MM model mice were randomized to receive the injection of either MSCs (once, about 1×10^6 MSCs/10 g body weight) via the tail vein (MSC group) or […] (L-PAM; weekly, about 50 μg/10 g body weight) in the abdominal cavity (L-PAM group), as shown in FIG. 1A. See Akiyama et al. “Mesenchymal-stem-cell-induced immunoregulation involves FAS-ligand/FAS-mediated T cell apoptosis” Cell Stem Cell 2012, 10:544-555. The entire content of this publication is incorporated herein by reference. L-Phenylalanine mustard, or L-PAM, otherwise known as melphalan, is used as the standard treatment in older MM patients. See Musto P. et al. “Melphalan: old and new uses of a still master drug for multiple myeloma” Expert Opin Investig Drugs 2007, 16:1467-1487. The entire content of this publication is incorporated herein by reference. MM model mice with no treatment served as the positive control (MM group). Original nude mice with no treatment served as the negative control (Control group). The 6-week survival rates of the mice in different groups were compared. After about 4 weeks of feeding, the cancroid pearls in the neck, tail root and abdominal cavity of the mice in different groups were identified for analysis. […]

[2] = tested on: 5TGM1 MM cells; experiment: Microcomputed tomography of bone density in MM model mice; type: in vivo; settings: microcomputed tomography after about 4 weeks; P<0.05
Experimental: A 5TGM1 MM model was conducted in weight-matched, 8-week-old to 10-week-old female bg-nu/nu-xid mice from the Jackson Lab (Bar Harbor, Me., USA). The use of animals for research was approved through the Institutional Ethics Committee/Institutional Review Board of the University of Southern California (protocol #10941). The mice were housed in isolator cages, and autoclaved chow and acidified water were provided ad libitum. Disseminated MM was induced through the intravenous inoculation of about 6×10^6 5TGM1 cells in about 200 μl PBS in bg-nu/nu-xid mice through the tail vein (about 6×10^6/10 g body weight). […]
The cross-sectional volumetric bone mineral density was measured in right femur diaphysis of the mice in each group after about 4 weeks of feeding (for each group, n=6). […] Using two-dimensional images, a region of interest in secondary spongiosa was manually drawn near the endocortical surface, and cancellous bone morphometric parameters including the bone volume relative to the tissue volume (percentage) and the trabecular thickness (millimeters) were assessed. A trained observer blinded to the composition of the different groups and treatments received analyzed the number and surface area of radiolucent lesions.

[3] = tested on: 5TGM1 MM cells; experiment: MM cell metastasis in lungs and kidneys of MM model mice; type: in vivo; settings: after about 4 weeks
Experimental: A 5TGM1 MM model was conducted in weight-matched, 8-week-old to 10-week-old female bg-nu/nu-xid mice from the Jackson Lab (Bar Harbor, Me., USA). The use of animals for research was approved through the Institutional Ethics Committee/Institutional Review Board of the University of Southern California (protocol #10941). The mice were housed in isolator cages, and autoclaved chow and acidified water were provided ad libitum. Disseminated MM was induced through the intravenous inoculation of about 6×10^6 5TGM1 cells in about 200 μl PBS in bg-nu/nu-xid mice through the tail vein (about 6×10^6/10 g body weight). After tumor cell inoculation, multiple MM model mice were randomized to receive the injection of either MSCs (once, about 1×10^6 MSCs/10 g body weight) via the tail vein (MSC group) or […] (L-PAM; weekly, about 50 μg/10 g body weight) in the abdominal cavity (L-PAM group), as shown in FIG. 1A. See Akiyama et al. “Mesenchymal-stem-cell-induced immunoregulation involves FAS-ligand/FAS-mediated T cell apoptosis” Cell Stem Cell 2012, 10:544-555. The entire content of this publication is incorporated herein by reference. L-Phenylalanine mustard, or L-PAM, otherwise known as melphalan, is used as the standard treatment in older MM patients. […]

[4] = tested on: Fas-L; experiment: Fas-L expression in MSCs (western blotting); type: cell-based, mice
Description: Bone marrow cells were flushed from the bone cavity of femurs and tibias of B6 mice (C57BL/6 J) with about 2% heat inactivated fetal bovine serum (Equitech-Bio, Kerrville, Tex., USA) in PBS, and MSCs positive for CD73, CD90, CD105, CD146, CD166, Sca-1 and SSEA-4, but negative for CD11b, CD31, CD34 and CD45, were obtained as previously described by Liu et al. “Mesenchymal stem cell-based tissue regeneration is governed by recipient T lymphocytes via IFN-γ and TNF-α” Nat Med 2011, 17:1594-1601. The entire content of this publication is incorporated herein by reference. The cells with MSC character were cultured with alpha minimum essential medium (Invitrogen) supplemented with about 20% fetal bovine serum and 2 mM L-glutamine (Invitrogen) in a humidified atmosphere of about 95% air and about 5% CO2 at about 37° C. for about 3 days before co-culture. See Oyajobi et al. “Dual effects of macrophage inflammatory protein-1alpha on osteolysis and tumor burden in the murine 5TGM1 model of myeloma bone disease” Blood 2003, 102:311-319. The entire content of this publication is incorporated herein by reference. Additionally, MSCs, which had no Fas-L, were isolated from generalized lymphoproliferative disease (gld) mice for use in comparative experiments. B6 and gld mice in the same background ([…]) were purchased from the Jackson Laboratory. […]

[5] = neck, tail root and abdominal cavity, after about 4 weeks, versus MM group

SMILES: N[C@@H](Cc1ccc(N(CCCl)CCCl)cc1)C(=O)O [L-PAM, L-Phenylalanine mustard]
- 6-week survival rate ([1]; MM model mice, MSCs once via tail vein, L-PAM weekly in abdominal cavity, versus untreated MM group, P<0.05): prolonged survival compared with the MM group; also recorded: higher than the MM group
- number of cancroid pearls [1, 5]: no significant difference
- size of cancroid pearls [1, 5]: smaller compared with the MM group
- bone density (BD) in lumbus and collum femoris [2]: MM group was much lower than those of the MSC group, the L-PAM group
- metastasis rate in the kidney tissue [3]: no significant difference

SMILES: CC(=O)Oc1ccccc1C(=O)O [Aspirin, aspirin]
- expression of Fas-L in MSCs after aspirin treatment [4]: enhanced expression of Fas-L in MSCs
